This passage reports IC50 results from patent publication US20100003250A1, “(2-ARYL-7H-PYRROLO[2,3-D]PYRIMIDIN-4-YL)MORPHOLINE COMPOUNDS, THEIR USE AS MTOR KINASE AND PI3 KINASE INHIBITORS, AND THEIR SYNTHESES” (Wyeth, priority 2008, published 2010).

pIC50: −log10 of the molar value.

What all share (format): biochemical
The target of one assay is T1, mTOR Kinase (FLAG-TOR) (Homo sapiens, UniProt P42345).
T1 construct: FLAG
The experiment in a line: mTOR kinase assay, purified enzyme, DELFIA format. The note with it: 100 μM ATP, 1.25 μM His6-S6K; read-out: mTOR Kinase Median IC50.

A further assay deals with PI3Kγ (Homo sapiens, UniProt P48736). The experiment in a line: PI3K-gamma fluorescence polarization assay. The note with it: 20 μM PIP2, 25 μM ATP; read-out: PI3Kγ Median IC50. Here is the method:
PI3K-alpha and PI3K-gamma Fluorescence Polarization Assay Protocols
The reaction buffer was 20 mM HEPES pH 7.5, 2 mM MgCl2, 0.05% CHAPS, and 0.01% βME (added fresh). The substrate solution was 40 μM PIP2 (diC8, Echelon, Salt Lake City Utah cat # P-4508, 1 mM in water) and 50 μM ATP in the reaction buffer. Nunc 384-well black polypropylene fluorescent plates were used for PI3K assays. The assay is run by putting 9.5 μl of freshly diluted enzyme in the reaction buffer per well, adding 0.5 μl of diluted drug or DMSO, and mixing. Then 10 μl of the substrate solution is added to each well to start the reaction. A final concentration of 20 μM PIP2 and 25 μM ATP in the reaction was used. Reactions were allowed to proceed for 30-60 minutes at room temperature. After 30-60 minutes, 20 μl of a solution of 10 nM TAMRA detector (Red detector probe-Echelon) and 2.5 μM of GST-murineGRP (1.5 mg/ml in 17% glycerol) was added per well to stop the reaction. The resulting solution was mixed well and allowed to stand for 90-110 minutes before reading plate. Assay Plates were read on Perkin-Elmer Envision plate readers with appropriate filters for Tamra [BODIPY-TMRI(1,3,4,5)P4]. Data obtained were used to calculate enzymatic activity and enzyme inhibition by inhibitor compounds. It is important to keep Red probe solutions dark. This procedure is adapted from Echelon Biosciences Inc procedure for their PI3-Kinase fluorescence polarization activity Assay kit Product number K-1100.

For a further assay, the target named is PI3Kα (Homo sapiens, UniProt P42336). The experiment in a line: PI3K-alpha fluorescence polarization assay. The note with it: 20 μM PIP2, 25 μM ATP; read-out: PI3Kα Median IC50.
Sequence of PI3Kα (P42336 whole entry, species assumed): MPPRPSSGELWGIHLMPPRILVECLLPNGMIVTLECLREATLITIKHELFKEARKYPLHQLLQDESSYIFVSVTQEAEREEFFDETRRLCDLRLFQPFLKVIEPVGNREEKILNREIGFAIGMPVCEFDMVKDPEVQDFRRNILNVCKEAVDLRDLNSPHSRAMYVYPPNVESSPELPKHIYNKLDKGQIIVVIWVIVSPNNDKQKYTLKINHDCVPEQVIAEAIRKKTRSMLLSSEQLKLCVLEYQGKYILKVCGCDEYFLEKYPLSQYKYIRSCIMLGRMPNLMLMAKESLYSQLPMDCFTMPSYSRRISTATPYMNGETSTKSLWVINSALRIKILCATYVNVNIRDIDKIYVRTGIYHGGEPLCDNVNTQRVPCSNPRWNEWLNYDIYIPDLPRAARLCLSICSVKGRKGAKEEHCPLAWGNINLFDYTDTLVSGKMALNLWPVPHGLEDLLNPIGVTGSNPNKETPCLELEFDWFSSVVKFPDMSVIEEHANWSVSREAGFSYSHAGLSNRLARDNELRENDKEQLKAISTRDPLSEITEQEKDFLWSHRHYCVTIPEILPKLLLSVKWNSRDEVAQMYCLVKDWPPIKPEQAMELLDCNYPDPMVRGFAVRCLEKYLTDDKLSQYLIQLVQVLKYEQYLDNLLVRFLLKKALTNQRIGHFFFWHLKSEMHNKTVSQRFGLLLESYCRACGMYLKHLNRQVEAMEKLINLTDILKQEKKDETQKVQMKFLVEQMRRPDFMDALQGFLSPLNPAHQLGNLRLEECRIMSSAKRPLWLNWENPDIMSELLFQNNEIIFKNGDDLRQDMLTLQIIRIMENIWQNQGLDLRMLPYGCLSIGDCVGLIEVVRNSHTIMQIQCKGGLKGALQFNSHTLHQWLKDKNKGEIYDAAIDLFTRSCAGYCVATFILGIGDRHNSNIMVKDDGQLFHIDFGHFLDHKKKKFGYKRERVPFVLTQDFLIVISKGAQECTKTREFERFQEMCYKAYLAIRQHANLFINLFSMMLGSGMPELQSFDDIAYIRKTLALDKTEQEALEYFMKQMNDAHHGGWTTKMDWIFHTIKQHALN
Sequence of PI3Kα (P27986 whole entry partner, species assumed): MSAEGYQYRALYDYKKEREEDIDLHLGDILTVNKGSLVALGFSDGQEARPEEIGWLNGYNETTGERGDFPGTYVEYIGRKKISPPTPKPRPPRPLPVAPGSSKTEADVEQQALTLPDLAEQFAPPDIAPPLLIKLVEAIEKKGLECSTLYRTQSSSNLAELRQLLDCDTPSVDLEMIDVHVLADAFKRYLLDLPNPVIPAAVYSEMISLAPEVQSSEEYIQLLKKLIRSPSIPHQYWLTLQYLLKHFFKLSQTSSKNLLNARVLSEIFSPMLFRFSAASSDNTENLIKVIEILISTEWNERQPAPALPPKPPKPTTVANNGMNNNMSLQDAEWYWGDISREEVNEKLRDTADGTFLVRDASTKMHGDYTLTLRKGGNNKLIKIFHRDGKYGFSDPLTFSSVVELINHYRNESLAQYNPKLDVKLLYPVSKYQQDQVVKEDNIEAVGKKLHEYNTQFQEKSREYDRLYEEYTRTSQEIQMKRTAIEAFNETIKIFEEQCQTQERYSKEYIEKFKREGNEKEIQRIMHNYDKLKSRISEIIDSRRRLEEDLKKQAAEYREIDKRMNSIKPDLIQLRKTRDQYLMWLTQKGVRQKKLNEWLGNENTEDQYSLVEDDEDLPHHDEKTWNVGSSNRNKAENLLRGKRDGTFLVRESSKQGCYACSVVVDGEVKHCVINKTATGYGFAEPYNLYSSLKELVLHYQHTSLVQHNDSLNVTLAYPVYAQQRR

Sequence of PI3Kγ (P48736 whole entry, species assumed): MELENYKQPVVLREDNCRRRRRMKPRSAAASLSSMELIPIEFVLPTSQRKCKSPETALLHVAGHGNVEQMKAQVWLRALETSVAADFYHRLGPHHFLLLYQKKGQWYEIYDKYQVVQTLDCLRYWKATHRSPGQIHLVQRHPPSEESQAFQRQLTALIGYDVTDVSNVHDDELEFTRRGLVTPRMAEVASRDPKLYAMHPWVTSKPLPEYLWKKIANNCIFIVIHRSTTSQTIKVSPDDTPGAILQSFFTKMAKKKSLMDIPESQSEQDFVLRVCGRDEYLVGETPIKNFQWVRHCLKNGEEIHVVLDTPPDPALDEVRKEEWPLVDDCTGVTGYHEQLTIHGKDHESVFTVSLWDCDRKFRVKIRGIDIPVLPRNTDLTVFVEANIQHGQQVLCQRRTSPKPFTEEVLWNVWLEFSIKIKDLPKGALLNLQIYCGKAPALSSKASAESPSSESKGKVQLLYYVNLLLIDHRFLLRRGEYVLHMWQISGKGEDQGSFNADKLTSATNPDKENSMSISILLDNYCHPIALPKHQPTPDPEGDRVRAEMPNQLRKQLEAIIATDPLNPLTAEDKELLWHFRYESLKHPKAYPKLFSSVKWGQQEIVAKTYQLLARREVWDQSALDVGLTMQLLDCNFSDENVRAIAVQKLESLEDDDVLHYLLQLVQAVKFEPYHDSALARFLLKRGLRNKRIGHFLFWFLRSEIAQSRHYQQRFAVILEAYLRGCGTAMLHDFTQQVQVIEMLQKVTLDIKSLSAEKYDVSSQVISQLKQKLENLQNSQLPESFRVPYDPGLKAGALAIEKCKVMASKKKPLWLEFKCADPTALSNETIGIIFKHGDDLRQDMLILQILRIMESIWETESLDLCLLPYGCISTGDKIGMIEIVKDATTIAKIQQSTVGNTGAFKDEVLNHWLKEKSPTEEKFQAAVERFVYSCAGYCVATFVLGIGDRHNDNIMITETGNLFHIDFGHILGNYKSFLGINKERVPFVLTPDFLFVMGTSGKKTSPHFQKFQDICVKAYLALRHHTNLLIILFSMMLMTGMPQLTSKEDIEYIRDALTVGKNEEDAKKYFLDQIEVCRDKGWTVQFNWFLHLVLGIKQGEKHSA

In the case of `O=C(Nc1nc2cc(-c3nc(N4CCOCC4)c4ccn(CC(F)(F)F)c4n3)ccc2[nH]1)c1ccncc1` [Compound 47, N-{5-[4-morpholin-4-yl-7-(2,2,2-trifluoroethyl)-7H-pyrrolo[2,3-d]pyrimidin-2-yl]-1H-benzimidazol-2-yl}isonicotinamide], the pIC50 was 6.52 at mTOR Kinase (FLAG-TOR), 5.28 at PI3Kγ and 5.96 on PI3Kα.
Consider `CCn1ccc2c(N3CCOCC3)nc(-c3ccc(NC(=O)Nc4ccc(C(=O)N5CCC(N6CCCCC6)CC5)cc4)cc3)nc21` [Compound 72, 1-[4-(1,4′-bipiperidin-1′-ylcarbonyl)phenyl]-3-[4-(7-ethyl-4-morpholin-4-yl-7H-pyrrolo[2,3-d]pyrimidin-2-yl)phenyl]urea], for which the figures for the pIC50 at mTOR Kinase (FLAG-TOR), on PI3Kγ and on PI3Kα were 8.85, 7.55 and 8.46, respectively.
With `CN(C)CCn1ccc2c(N3CCOCC3)nc(-c3ccc(NC(=O)Nc4ccncc4)cc3)nc21` [Compound 12, 1-(4-{7-[2-(dimethylamino)ethyl]-4-morpholin-4-yl-7H-pyrrolo[2,3-d]pyrimidin-2-yl}phenyl)-3-pyridin-4-ylurea], the pIC50 on PI3Kγ was 7.44; on PI3Kα, 7.96.
Regarding `CNC(=O)Nc1ccc(-c2nc(N3CCOCC3)c3ccn(CCN(C)C)c3n2)cc1` [Compound 17, 1-(4-{7-[2-(dimethylamino)ethyl]-4-morpholin-4-yl-7H-pyrrolo[2,3-d]pyrimidin-2-yl}phenyl)-3-methylurea], the negative logarithm of the IC50 (pIC50) on mTOR Kinase (FLAG-TOR) is 7.48; on PI3Kγ it was 6.09.
In the case of `CC(C)N1CCN(C(=O)c2ccc(NC(=O)Nc3ccc(-c4nc(N5CCOCC5)c5ccn(C(C)C)c5n4)cc3)cc2)CC1` [Compound 93, 1-{4-[7-(1-methylethyl)-4-morpholin-4-yl-7H-pyrrolo[2,3-d]pyrimidin-2-yl]phenyl}-3-(4-{[4-(1-methylethyl)piperazin-1-yl]carbonyl}phenyl)urea], the pIC50 on mTOR Kinase (FLAG-TOR) is 9.03; on PI3Kγ it was 7.09; on PI3Kα it was 7.92.
For `CCn1ccc2c(N3CCOCC3)nc(-c3ccc(NC(=O)Nc4ccc(C(=O)NCCCN(C)C)cc4)cc3)nc21` [Compound 74, N-[3-(dimethylamino)propyl]-4-({[4-(7-ethyl-4-morpholin-4-yl-7H-pyrrolo[2,3-d]pyrimidin-2-yl)phenyl]carbamoyl}amino)benzamide], the figures for the pIC50 on mTOR Kinase (FLAG-TOR), at PI3Kγ and at PI3Kα were 8.92, 7.49 and 8.72, respectively.
With `COC(Cn1ccc2c(N3CCOCC3)nc(-c3ccc(NC(=O)Nc4ccncc4)cc3)nc21)OC` [Compound 21, 1-{4-[7-(2,2-dimethoxyethyl)-4-morpholin-4-yl-7H-pyrrolo[2,3-d]pyrimidin-2-yl]phenyl}-3-pyridin-4-ylurea], at PI3Kγ, the pIC50 was 6.77.
Take `O=C(Nc1ccncc1)Nc1ccc(-c2nc(N3CCOCC3)c3cc[nH]c3n2)cc1` [Compound 4, 1-[4-(4-morpholin-4-yl-7H-pyrrolo[2,3-d]pyrimidin-2-yl)phenyl]-3-pyridin-4-ylurea]: the pIC50 at PI3Kγ is 7.19.
Still for that read-out and setting: the figure for `CN(C)CCn1ccc2c(N3CCOCC3)nc(-c3ccc(NC(=O)Nc4ccccn4)cc3)nc21` [Compound 11, 1-(4-{7-[2-(dimethylamino)ethyl]-4-morpholin-4-yl-7H-pyrrolo[2,3-d]pyrimidin-2-yl}phenyl)-3-pyridin-2-ylurea] is 6.20.
For the compound `O=C(Nc1ccncc1)Nc1ccc(-c2nc(N3CCOCC3)c3ccn(CC(F)(F)F)c3n2)cc1` [Compound 36, 1-{4-[4-morpholin-4-yl-7-(2,2,2-trifluoroethyl)-7H-pyrrolo[2,3-d]pyrimidin-2-yl]phenyl}-3-pyridin-4-ylurea], the pIC50 on PI3Kγ was 7.20.
Regarding `CCNC(=O)Nc1ccc(-c2nc(N3CCOCC3)c3ccn(CCN(C)C)c3n2)cc1` [Compound 16, 1-(4-{7-[2-(dimethylamino)ethyl]-4-morpholin-4-yl-7H-pyrrolo[2,3-d]pyrimidin-2-yl}phenyl)-3-ethylurea], the negative-log IC50 (pIC50) on mTOR Kinase (FLAG-TOR) is 7.52; on PI3Kγ, 6.27.
In the case of `CN(C)CCn1ccc2c(N3CCOCC3)nc(-c3ccc(NC(=O)Nc4cccnc4)cc3)nc21` [Compound 9, 1-(4-{7-[2-(dimethylamino)ethyl]-4-morpholin-4-yl-7H-pyrrolo[2,3-d]pyrimidin-2-yl}phenyl)-3-pyridin-3-ylurea], the pIC50 was 8.53 on mTOR Kinase (FLAG-TOR) and 6.99 on PI3Kγ.
Consider `CN(C)CCn1ccc2c(N3CCOCC3)nc(-c3cccc(O)c3)nc21` [Compound 6, 3-{7-[2-(dimethylamino)ethyl]-4-morpholin-4-yl-7H-pyrrolo[2,3-d]pyrimidin-2-yl}phenol], for which the pIC50 was less than 6.10 on mTOR Kinase (FLAG-TOR) and 5.78 at PI3Kγ.
Regarding `CN(C)CCNCCn1ccc2c(N3CCOCC3)nc(-c3ccc(NC(=O)Nc4ccncc4)cc3)nc21` [Compound 27, 1-{4-[7-(2-{[2-(dimethylamino)ethyl]amino}ethyl)-4-morpholin-4-yl-7H-pyrrolo[2,3-d]pyrimidin-2-yl]phenyl}-3-pyridin-4-ylurea], on PI3Kγ, the pIC50 was 6.37.
Regarding `O=C(Nc1ccncc1)Nc1ccc(-c2nc(N3CCOCC3)c3ccn(CCO)c3n2)cc1` [Compound 34, 1-{4-[7-(2-hydroxyethyl)-4-morpholin-4-yl-7H-pyrrolo[2,3-d]pyrimidin-2-yl]phenyl}-3-pyridin-4-ylurea], the figures for the pIC50 on PI3Kγ and at PI3Kα were 7.40 and 8.40, respectively.
For the compound `O=C(Nc1ccncc1)Nc1ccc(-c2nc(N3CCOCC3)c3ccn(CCN4CCCC4)c3n2)cc1` [Compound 23, 1-{4-[4-morpholin-4-yl-7-(2-pyrrolidin-1-ylethyl)-7H-pyrrolo[2,3-d]pyrimidin-2-yl]phenyl}-3-pyridin-4-ylurea], the pIC50 on PI3Kγ was 6.43.
With `CN(C)C1CCN(C(=O)c2ccc(NC(=O)Nc3ccc(-c4nc(N5CCOCC5)c5ccn(CC(F)(F)F)c5n4)cc3)cc2)CC1` [Compound 57, 1-(4-{[4-(dimethylamino)piperidin-1-yl]carbonyl}phenyl)-3-{4-[4-morpholin-4-yl-7-(2,2,2-trifluoroethyl)-7H-pyrrolo[2,3-d]pyrimidin-2-yl]phenyl}urea], the pIC50 at mTOR Kinase (FLAG-TOR) is 8.77; at PI3Kγ, 7.57.
As for `CN(C)CCn1ccc2c(N3CCOCC3)nc(-c3ccc(NC(=O)Nc4ccc(F)cc4)cc3)nc21` [Compound 13, 1-(4-{7-[2-(dimethylamino)ethyl]-4-morpholin-4-yl-7H-pyrrolo[2,3-d]pyrimidin-2-yl}phenyl)-3-(4-fluorophenyl)urea], the results for the pIC50 on mTOR Kinase (FLAG-TOR) and on PI3Kγ were 8.11 and 6.75, respectively.
Turning to `OCc1cccc(-c2nc(N3CCOCC3)c3cc[nH]c3n2)c1` [Compound 1, [3-(4-morpholin-4-yl-7H-pyrrolo[2,3-d]pyrimidin-2-yl)phenyl]methanol], the negative-log IC50 (pIC50) at PI3Kγ is 6.12.
For the compound `CN(C)CCn1ccc2c(N3CCOCC3)nc(-c3cccc(CO)c3)nc21` [Compound 7, (3-{7-[2-(dimethylamino)ethyl]-4-morpholin-4-yl-7H-pyrrolo[2,3-d]pyrimidin-2-yl}phenyl)methanol], the pIC50 was less than 6.10 on mTOR Kinase (FLAG-TOR) and 6.15 on PI3Kγ.
`O=CCn1ccc2c(N3CCOCC3)nc(-c3ccc(NC(=O)Nc4ccncc4)cc3)nc21` [Compound 22, 1-{4-[4-morpholin-4-yl-7-(2-oxoethyl)-7H-pyrrolo[2,3-d]pyrimidin-2-yl]phenyl}-3-pyridin-4-ylurea]: at PI3Kγ, the negative logarithm of the IC50 (pIC50) was 8.15.
In the case of `O=C(Nc1ccncc1)Nc1ccc(-c2nc(N3CCOCC3)c3ccn(CCN4CCCCC4)c3n2)cc1` [Compound 24, 1-{4-[4-morpholin-4-yl-7-(2-piperidin-1-ylethyl)-7H-pyrrolo[2,3-d]pyrimidin-2-yl]phenyl}-3-pyridin-4-ylurea], the pIC50 on PI3Kγ was 6.11.
In the case of `CN1CCN(CCn2ccc3c(N4CCOCC4)nc(-c4ccc(NC(=O)Nc5ccncc5)cc4)nc32)CC1` [Compound 28, 1-(4-{7-[2-(4-methylpiperazin-1-yl)ethyl]-4-morpholin-4-yl-7H-pyrrolo[2,3-d]pyrimidin-2-yl}phenyl)-3-pyridin-4-ylurea], the figures for the pIC50 on mTOR Kinase (FLAG-TOR) and on PI3Kγ were 7.62 and 6.50, respectively.
For `CN(C)CCN(C)C(=O)c1ccc(NC(=O)Nc2ccc(-c3nc(N4CCOCC4)c4ccn(CC(F)(F)F)c4n3)cc2)cc1` [Compound 51, N-[2-(dimethylamino)ethyl]-N-methyl-4-[({4-[4-morpholin-4-yl-7-(2,2,2-trifluoroethyl)-7H-pyrrolo[2,3-d]pyrimidin-2-yl]phenyl}carbamoyl)amino]benzamide], the pIC50 at mTOR Kinase (FLAG-TOR) was 9.32; at PI3Kγ, 7.85.
Consider `Oc1cccc(-c2nc(N3CCOCC3)c3cc[nH]c3n2)c1` [Compound 2, 3-(4-morpholin-4-yl-7H-pyrrolo[2,3-d]pyrimidin-2-yl)phenol], for which, on PI3Kγ, the pIC50 is 6.47.
Regarding `O=C(Nc1ccncc1)Nc1ccc(-c2nc(N3CCOCC3)c3ccn(CCN4CCNCC4)c3n2)cc1` [Compound 29, 1-{4-[4-morpholin-4-yl-7-(2-piperazin-1-ylethyl)-7H-pyrrolo[2,3-d]pyrimidin-2-yl]phenyl}-3-pyridin-4-ylurea], the pIC50 on PI3Kγ was 7.44.

The term pIC50 denotes the negative decadic logarithm of the IC50, by convention in mol/L.
